One test concerns DRG explants. Nature of the test: Axon growth of ex vivo cultured adult DRG explants. In kind it is cell-based, Sprague-Dawley rat. Particulars: 4 days. The method, then: Figure 3 Effect of the CH02 peptide on axon growth and neuron survival. (A) Representative images of the CH02 peptide effect on axon growth in adult primary DRG neurons. DRG neurons were obtained from adult Sprague-Dawley rats. After 12-h of culture, neurons were stimulated with CH02 or bFGF for 48 h. Axonal outgrowth was assessed by immunocytochemistry using an antibody against β-tubulin, an axonal marker. Images were acquired from random neurons by fluorescence microscopy. Scale bars = 50 μm. (B) Quantification of the longest axon length of each neuron randomly selected in three independent experiments from (A), using Image-Pro Plus 6.0 software (n = 48 for each condition; *p < 0.05, ****p < 0.0001 by one-way ANOVA with Dunnett's test; ns, not significant; mean ± SD). (C) Representative images of the CH02 effect on axon growth in ex vivo cultured adult DRG explants. The axon is shown in fluorescence (β3-tubulin) images. Scale bars = 100 μm. (D) Quantification of axon growth of DRG explants from (C) using the Neurite-J software (n=4 for each condition; *control vs. CH02; #control vs. bFGF; *p < 0.05, **p < 0.01, ***p < 0.001, #p < 0.05, ##p < 0.01 by two-way ANOVA with Dunnett's test; ns, not significant; mean ± SEM). (E) Cell cytotoxicity assay of primary DRG neurons induced by H2O2. LDH released from damaged cell membranes was detected by an LDH assay kit. The results are expressed as the mean ± SEM (**p < 0.01 by one-way ANOVA with Dunnett's test; ns, not significant, compared with the control group). […] Apoptotic neurons were detected by a TUNEL apoptosis assay kit. […] (G) Quantification of TUNEL-positive neurons from (F) (n = 3 for each condition; **p < 0.01 by one-way ANOVA with Dunnett's test; ns, not significant, compared with the control group). […]
DRG explants were harvested from adult Sprague-Dawley rats (220-250 g) and placed in a 3.5 cm dish containing 2 mL of ice-cold neurobasal medium supplemented with 1 × B27, 4 mM Glutamax and 3× penicillin/streptomycin (Pen/Strep). […] After 7 days of culture, axon growth was measured. […]

For another test, the system named is primary DRG neurons. In words: Axon growth of primary adult DRG neurons. In kind it is cell-based, Sprague-Dawley rat. To be noted: 48 h. As to the method:
Figure 3 Effect of the CH02 peptide on axon growth and neuron survival. (A) Representative images of the CH02 peptide effect on axon growth in adult primary DRG neurons. DRG neurons were obtained from adult Sprague-Dawley rats. After 12-h of culture, neurons were stimulated with CH02 or bFGF for 48 h. Axonal outgrowth was assessed by immunocytochemistry using an antibody against β-tubulin, an axonal marker. Images were acquired from random neurons by fluorescence microscopy. Scale bars = 50 μm. (B) Quantification of the longest axon length of each neuron randomly selected in three independent experiments from (A), using Image-Pro Plus 6.0 software (n = 48 for each condition; *p < 0.05, ****p < 0.0001 by one-way ANOVA with Dunnett's test; ns, not significant; mean ± SD). (C) Representative images of the CH02 effect on axon growth in ex vivo cultured adult DRG explants. The axon is shown in fluorescence (β3-tubulin) images. Scale bars = 100 μm. (D) Quantification of axon growth of DRG explants from (C) using the Neurite-J software (n=4 for each condition; *control vs. CH02; #control vs. bFGF; *p < 0.05, **p < 0.01, ***p < 0.001, #p < 0.05, ##p < 0.01 by two-way ANOVA with Dunnett's test; ns, not significant; mean ± SEM). (E) Cell cytotoxicity assay of primary DRG neurons induced by H2O2. LDH released from damaged cell membranes was detected by an LDH assay kit. The results are expressed as the mean ± SEM (**p < 0.01 by one-way ANOVA with Dunnett's test; ns, not significant, compared with the control group). (F) Representative TUNEL staining of apoptotic neurons induced by H2O2 in the control, CH02, and FGF2 groups. Scale bars = 50 μm. Apoptotic neurons were detected by a TUNEL apoptosis assay kit. TUNEL (green); NeuN, neuronal marker (red); DAPI (blue). (G) Quantification of TUNEL-positive neurons from (F) (n = 3 for each condition; **p < 0.01 by one-way ANOVA with Dunnett's test; ns, not significant, compared with the control group). DRG neurons were obtained from adult Sprague-Dawley rats. […]

The text below walks through data of paper PMC8581430, “Peptide ligands targeting FGF receptors promote recovery from dorsal root crush injury via AKT/mTOR signaling” (Theranostics, 2021).

Take `N#CC(=C(/N)Sc1ccccc1N)/C(C#N)=C(/N)Sc1ccccc1N` [U0126]: the “effect of AKT/ERK inhibitor on axon growth-promoting effect of CH02, DRG explants” value in the test on DRG explants (CH02 20 μM + inhibitor 2 μM, n = 4) is on record as “had little effect”. In the test with primary DRG neurons (CH02 20 μM + inhibitor 2 μM, n = 40), the “effect of AKT/ERK inhibitor on axon growth-promoting effect of CH02, DRG neurons” value is reported as “had little effect”.
Take `CCN1CCN(c2ccc(Nc3cc(N(C)C(=O)Nc4c(Cl)c(OC)cc(OC)c4Cl)ncn3)cc2)CC1` [BGJ398]: the “effect of inhibitor on CH02-enhanced neurite outgrowth, DRG explants” value with DRG explants (CH02 20 μM + BGJ398 2 μM, n = 5) is on record as “inhibited the enhancement of neuron outgrowth associated with CH02 treatment”. Moreover, the “effect of inhibitor on CH02-enhanced neurite outgrowth, primary neurons” value in the test on primary DRG neurons (CH02 20 μM + BGJ398 2 μM, n = 100) is listed as “inhibited the enhancement of neuron outgrowth associated with CH02 treatment”.
